Reference: ChEMBL document CHEMBL5154921, “Discovery and Characterization of the First Nonpeptide Antagonists for the Relaxin-3/RXFP3 System” (J Med Chem, 2022)

Target: T1, Relaxin-3 receptor 1 (Homo sapiens, UniProt Q9NSD7)
T1 sequence (Q9NSD7 whole entry): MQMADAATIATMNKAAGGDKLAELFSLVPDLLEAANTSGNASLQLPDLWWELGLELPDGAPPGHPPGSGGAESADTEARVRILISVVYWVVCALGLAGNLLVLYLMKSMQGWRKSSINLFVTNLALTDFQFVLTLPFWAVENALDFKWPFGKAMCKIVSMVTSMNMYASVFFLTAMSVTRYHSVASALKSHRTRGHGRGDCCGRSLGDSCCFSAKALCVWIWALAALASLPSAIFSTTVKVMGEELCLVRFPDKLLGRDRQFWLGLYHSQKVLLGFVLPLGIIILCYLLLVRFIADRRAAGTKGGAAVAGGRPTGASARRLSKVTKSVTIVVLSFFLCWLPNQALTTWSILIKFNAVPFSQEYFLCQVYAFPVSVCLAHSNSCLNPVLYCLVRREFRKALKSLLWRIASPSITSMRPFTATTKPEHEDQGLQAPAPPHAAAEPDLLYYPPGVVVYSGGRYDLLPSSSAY
Experiment: Antagonist activity at human RXFP3 expressed in CHO-K1 cells assessed as forskolin-induced cAMP accumulation measured after 30 mins in presence of relaxin-3 by TR-FRET assay
Format: functional, cell-based

IC50 | SMILES
> 10 µM | Cc1ccc(-c2noc(-c3ccc(NC(=O)C4CC(=O)N(Cc5ccccc5F)C4)cc3)n2)cc1 (configuration not stated)
> 10 µM | Cc1ccc(-c2noc(-c3ccc(NC(=O)C4CC(=O)N(Cc5ccccn5)C4)cc3)n2)cc1 (configuration not stated)
